Values quoted from earlier work as cited in US20190077874A1, “METHODS AND COMPOSITIONS FOR THE TREATMENT OF TUBEROUS SCLEROSIS” (National Tuberous Sclerosis Association, Inc., priority 2017, published 2019).

Tests used:
[1] = system: refractory partial-onset seizures; settings: patients with refractory partial-onset seizures
TSC patients = settings: previous antiepileptic drugs
[2] = system: infantile spasms in the setting of TSC
[3] = system: TSC patients with medically refractory epilepsy and SEGAs; settings: case studies of TSC patients
[4] = most commonly hypertension, immune suppression and infection, electrolyte imbalance etc.
IL-1β = settings: TSC mouse model
CXCL10 = settings: TSC mouse model
TSC mouse model = settings: Zhang et al.

## C=CC(N)CCC(=O)O (stereo not drawn) [VGB, vigabatrin]
[1]
  patients in whom treatment is ineffectual: more than 75%
TSC patients
  patients in whom the antiepileptic drug failed: 66%
[2]
  efficacy in treating infantile spasms: particularly effective

## CO[C@H]1C[C@@H]2CC[C@@H](C)[C@@](O)(O2)C(=O)C(=O)N2CCCC[C@H]2C(=O)O[C@H]([C@H](C)C[C@@H]2CC[C@@H](OCCO)[C@H](OC)C2)CC(=O)[C@H](C)/C=C(\C)[C@@H](O)[C@@H](OC)C(=O)[C@H](C)C[C@H](C)/C=C/C=C/C=C/1C [everolimus]
[3]
  SEGA size: dramatic reduction
  seizure frequency: dramatic reduction

## CC[C@@H](C(N)=O)N1CCCC1=O [levetiracetam]
TSC patients
  patients in whom the antiepileptic drug failed: 67%

## CC1(C)O[C@@H]2[C@@H](CO[C@@]3(COS(N)(=O)=O)OC(C)(C)O[C@@H]23)O1 [topiramate]
TSC patients
  patients in whom the antiepileptic drug failed: 58%

## adrenocorticotropic hormone (SYSMEHFRWGKPVGKKRRPVKVYPNGAEDESAEAFPLEF; Corticotropin; UniProt P01189 138-176, looked up) [ACTH, mainstay therapy for the treatment of seizures in TSC patients]
[4]
  treated patients with adverse effects: up to 85%

## epicatechin-3-gallate
IL-1β
  increased production of IL-1β: reverse the increased production
CXCL10
  increased production of CXCL10: reverse the increased production
TSC mouse model
  seizures: reduced seizures
  survival: improved survival
